This note sets out measurements from EP0315782A2, “Method for the production of proteins” (priority 1987, dated 1989).

Holding throughout (format): cell-based, chinesische Hamster
Experiment [1] deals with CHO-Zellen. Nature of the experiment: t-PA production in transformed CHO cells, medium with 7.5% FKS, supernatant, direct chromogenic assay (DCA). The following applies: for activation at 1000 µM: CHO, read-out: Steigerung der t-PA-Produktion. An excerpt:
(§1) Der Vektor für die t-PA-Produktion wurde in einem Subklon, CHO-K1-DUX B11, integriert (Urlaub et al., Proceedings of the National Academy of Science, USA, 77: 4216-4220, 1980). Diese Zell-Linie, eine Dihydrofolat Reduktase negative Mutante (DHFR-), ist für eine DHFR-abhängige Selektion der transfizierten Zellklone geeignet. Der Vektor für die humane c-DNA kann ein bekannter Plasmid-Vektor pBR-322 oder deren Abkömmling von Escherichia coli sein. Die Promotorregion für das in Frage kommende Gen und für das DHFR-Gen stammt aus SV 40 und die Terminationsregion für beide Gene von einem Hepatitis B-Oberflächenantigen. In den Beispielen wurden CHO-K1-DUX B11-Zellen, die durch die Plasmide pETPER oder pEPEFR transformiert sind, verwendet (siehe EP-A 0117059).
(§2) Die Zellkulturen werden bei 37°C in einem Hereaus-Brutschrank inkubiert und mit einem Kohlendioxid-Luftgemisch von 7,5% CO₂ in einer relativen Luftfeuchtigkeit von 100% belüftet. Je nach Verfahrensansatz werden unterschiedliche Kulturgefäße benutzt: Spinnergefäße für 100-1000 ml Medium, Roux-Schalen (Nunc) 175 cm² (70-100 ml Medium), 75 cm² (30-50 ml Medium), 25 cm² (7-10 ml Medium) und Mehrfachkulturschalen von Costar mit 2 cm² für 1 ml Kulturen. Für die Stammhaltung werden die Zellen in einer Dichte von 0,2-0,3 x 10⁶ Zellen/ml eingesetzt und alle 2-3 Tage subkloniert.
(§3) Die Protein-Produktion stimulierenden Substanzen können zu den verschiedenen Zeitpunkten jeweils in einer 1:100 Verdünnung zugegeben werden, d.h. sie wurden zuerst in Medium gelöst oder, wenn sie schwerlöslich sind, erst in Äthylalkohol gelöst und danach in Medium zugesetzt und dann das diese Substanz enthaltende Medium dem zellenthaltenden Medium im Verhältnis 1:100 v/v zugegeben.
(§4) In den folgenden Beispielen wurden, um die Stimulierung der t-PA-Synthese hervorzurufen, Zellen einer exponentiell wachsenden Kultur entnommen und in Plastikröhrchen (Falcon) 10 Min. bei 1000 x g in einer Beckmann T 3-6 Zentrifuge abzentrifugiert. Nach Dekantieren des Überstandes wurde das Zellpellet mit frischem Medium resuspendiert.
(§5) Für die Produktion von t-PA in serumhaltigem Medium wurde als frisches Medium F12/DMEM + 7,5% FKS + Gentamycin verwendet. Die resultierende Suspension kann in 2 cm² 24 Wells-Platten bei einer Zelldichte von 0,2-0,3 x 10⁶ Zellen/ml angesetzt werden.
(§6) Aliquots von Zellüberständen und Zellextrakten wurden zu verschiedenen Zeitpunkten abgenommen bzw. hergestellt. Die Messung der Proben erfolgte entweder sofort oder nach Aufbewahrung bei -20°C mit folgenden Methoden:
Von dem synthetischen Peptidsubstrat S-2288 (D-H-Ile-Pro-Arg-p-Nitroanilin) der Firma Kabi Diagnostica wird durch das t-PA p-Nitroanilin als Reaktionsprodukt gebildet. Die Aktivität von t-PA ist zur Bildung von p-Nitroanilin proportional, die bei […], 37°C, gemessen wird.
Die spektrophotometrische Bestimmung der Enzymkinetik wurde mit einem ACP-5010-Analysengerät der Firma Eppendorf automatisch durchgeführt.
Die Aktivität des Enzyms wurde anhand dieses vorgegebenen Standards berechnet. Eine t-PA-Standardreihe von 1-15 µg/ml wurde mit einem Laborstandard hergestellt, der zu 72% aus 1-kettigem Material besteht.
Die Substratlösung (100 mM Tris/106 mM NaCl) wurde in einer Konzentration von 50 mM eingesetzt.

Experiment [2] relates to CHO-Zellen. The experiment is described as follows: t-PA production in transformed CHO cells, medium with 7.5% FKS, supernatant and cell extract, ELISA. The settings on record: for activation at 1000 µM: CHO.
Description: as §1, §2, §3, §4, §5, §6
Mit Hilfe eines ELISA (Enzyme-linked-immuno-sorbent-assay) wurden die t-PA-Proben des Überstandes und des Zellextraktes quantitativ bestimmt. Als Standard diente ein Laborstandard in einer Konzentrationsreihe von 0,038-5 µg/ml. Die Proben wurden 1:10 bis 1:1000 vorverdünnt.
On the technique in general: An ELISA detects its analyte on a solid surface through an enzyme-linked reagent.

Experiment [3] relates to CHO-Zellen. The experiment is described as follows: t-PA production in transformed CHO cells, serum-free medium (DCA or determination method not given). The settings on record: serum-free medium.
Description: Diese Zell-Linie, eine Dihydrofolat Reduktase negative Mutante (DHFR-), ist für eine DHFR-abhängige Selektion der transfizierten Zellklone geeignet. […] Die Promotorregion für das in Frage kommende Gen und für das DHFR-Gen stammt aus SV 40 und die Terminationsregion für beide Gene von einem Hepatitis B-Oberflächenantigen.
Im folgenden Beispiel wird ein nachseziertes DMEM/Ham's F 12 Medium (1:1) (Gibco) als serumfreies Medium verwendet. Als Zusatz wird fötales Kälberserum (FKS) in einer Konzentration von 7,5% oder 1-2% verwendet.
as §2, §3, §4
(§7) Für die Produktion von t-PA in serumfreiem Medium wurden die Zellen zuvor 3-4 Tage in einem Medium von 1-2% FKS adaptiert, wieder abzentrifugiert und das Zellpellet in serumfreiem Medium resuspendiert und anschließend in 2 cm² 24 Wells-Platten in einer Zelldichte von 0,4-0,5 x 10⁶ Zellen/ml überführt.
as §6
Die Aktivität des Enzyms wurde anhand dieses vorgegebenen Standards berechnet.

In experiment [4] the test system is CHO-Zellen. Nature of the experiment: t-PA production in transformed CHO cells, serum-free medium, ELISA. The following applies: in 1 µM Aphidicolin-treated cultures, after 96 h.
Description: as §1
Als serumfreies Medium stehen verschiedene bekannte Produkte zur Verfügung (siehe z.B. BMFT-Statusseminar 12, 13. November 1985, Bundesministerium für Forschung und Technologie, 5300 Bonn 2, Seite 111-120). Im folgenden Beispiel wird ein nachseziertes DMEM/Ham's F 12 Medium (1:1) (Gibco) als serumfreies Medium verwendet. Als Zusatz wird fötales Kälberserum (FKS) in einer Konzentration von 7,5% oder 1-2% verwendet.
as §2, §3
In den folgenden Beispielen wurden, um die Stimulierung der t-PA-Synthese hervorzurufen, Zellen einer exponentiell wachsenden Kultur entnommen und in Plastikröhrchen (Falcon) 10 Min. bei 1000 x g in einer Beckmann T 3-6 Zentrifuge abzentrifugiert. Nach Dekantieren des Überstandes wurde das Zellpellet mit frischem Medium resuspendiert. […]
Mit Hilfe eines ELISA (Enzyme-linked-immuno-sorbent-assay) wurden die t-PA-Proben des Überstandes und des Zellextraktes quantitativ bestimmt. […]

The subject of experiment [5] is CHO-Zellen. The experiment is described as follows: Cell growth / cell division of transformed CHO cells. The settings on record: serum-free medium. As for the experimental part: as §2, §5, §7
Experiment [6] relates to CHO-Zellen. Nature of the experiment: t-PA production in transformed CHO cells, medium and determination method not stated. The settings on record: day 5; medium not clearly stated.
Description: as §1, §2, §3, §4
Aliquots von Zellüberständen und Zellextrakten wurden zu verschiedenen Zeitpunkten abgenommen bzw. hergestellt. Die Messung der Proben erfolgte entweder sofort oder nach Aufbewahrung bei -20°C mit folgenden Methoden: […]

SMILES strings stand for the structures.

`CCCC(=O)O` [Na-Butyrat]: the activation at 1000 µM in experiment [1] (48 h, Table 6, 1 mM at each medium change (Applikation Tag 0, 2, 4, 7), Mediumwechsel Tag 2, 1 ml supernatant vs control (0%)) worked out at 33%; in experiment [1] (96 h, Table 6, 1 mM at each medium change (Applikation Tag 0, 2, 4, 7), Mediumwechsel Tag 4, 1 ml supernatant vs control (0%)), 107%; in experiment [1] (168 h, Table 6, 1 mM at each medium change (Applikation Tag 0, 2, 4, 7), Mediumwechsel Tag 7, 1 ml supernatant vs control (0%)), 96.6%; in experiment [1] (216 h, Table 6, 1 mM at each medium change (Applikation Tag 0, 2, 4, 7), Mediumwechsel Tag 9, 1 ml supernatant vs control (0%)), 62%; in experiment [2] (24 h, read-out: Stimulierung der t-PA-Synthese extrazellulär), 68.5%; in experiment [2] (24 h, read-out: Stimulierung der t-PA-Synthese intrazellulär), 90.9%. Further, the activation at 1000 µM in experiment [2] (48 h, read-out: Stimulierung der t-PA-Synthese extrazellulär) worked out at 119%; in experiment [2] (48 h, read-out: Stimulierung der t-PA-Synthese intrazellulär), 99.7%; in experiment [2] (72 h, read-out: Stimulierung der t-PA-Synthese extrazellulär), 223%; in experiment [2] (72 h, read-out: Stimulierung der t-PA-Synthese intrazellulär) it was 93.9%; in experiment [2] (96 h, read-out: Stimulierung der t-PA-Synthese extrazellulär) it was 281%; in experiment [2] (96 h, read-out: Stimulierung der t-PA-Synthese intrazellulär) it was 210%. The “maximaler t-PA-Gehalt” value in experiment [1] (DCA, supernatant (Abb. 9B)) was 47,4 ± 7,4 µg t-PA/1 x 10⁶ Zellen. Besides, in experiment [1] (after 24 h, average of DCA and Elisa, vs control), the “prozentuale Steigerung im Überstand” value is reported as 19,2%. Moreover, the “maximale Steigerung der t-PA-Produktion” value in experiment [1] (day 3, medium with 7,5% FKS (Abb. 7)) was 37,2 ± 5,1%. The “t-PA-Konzentration im Überstand” value is recorded as 7,5 ± 1,1 µg t-PA/ 1 x 10⁶ Zellen in experiment [2] (Elisa, starting value of the rise during the first 4 days) and 28,9 ± 5,3 µg t-PA/ 1 x 10⁶ Zellen in experiment [2] (Elisa, value reached in the rise during the first 4 days). Moreover, in experiment [2] (after 24 h incubation, vs control (Abb. 8)), the “Zunahme des intrazellulären t-PA-Gehaltes” value is 43,8 ± 9,8%. Moreover, in experiment [2] (value from which the content falls (until day 5) (Abb. 9C)), the “intrazelluläre t-PA-Gehalt” value is 1,5 ± 0,2 µg t-PA/1 x 10⁶ Zellen. Further, in experiment [3] (1 day after application), the “Steigerung der t-PA-Synthese gegenüber der Kontrolle” value is 44,1 ± 7,1%. Further, the “maximale Steigerung” value in experiment [3] (3 days after application) is reported as 143,3 ± 12,8%. In addition, in experiment [3] (6 days after addition), the Steigerungseffekt is given as 49,9 ± 7,0%. Also, in experiment [4], the “weitere Steigerung der t-PA-Synthese” value is 14%.

With `O=C(O)CS` [Thioglykolsäure], the activation at 1000 µM was found to be 27.6% in experiment [1] (24 h, Table 9, 1 mM, Zeit 24 h, Applikationstag 0, 7,5% FKS, 1 ml supernatant vs control (0%)); 34.7% in experiment [1] (24 h, Table 9, 1 mM, Zeit 24 h, Applikationstag 1, 7,5% FKS, 1 ml supernatant vs control (0%)); 34.5% in experiment [1] (24 h, Table 9, 1 mM, Zeit 24 h, Applikationstag 2, 7,5% FKS, 1 ml supernatant vs control (0%)); 16.9% in experiment [1] (48 h, Table 9, 1 mM, Zeit 48 h, Applikationstag 0, 7,5% FKS, 1 ml supernatant vs control (0%)); 17.1% in experiment [1] (48 h, Table 9, 1 mM, Zeit 48 h, Applikationstag 1, 7,5% FKS, 1 ml supernatant vs control (0%)); 16.3% in experiment [1] (48 h, Table 9, 1 mM, Zeit 48 h, Applikationstag 2, 7,5% FKS, 1 ml supernatant vs control (0%)). The activation at 1000 µM is 14.7% in experiment [1] (72 h, Table 9, 1 mM, Zeit 72 h, Applikationstag 0, 7,5% FKS, 1 ml supernatant vs control (0%)); 10.2% in experiment [1] (72 h, Table 9, 1 mM, Zeit 72 h, Applikationstag 1, 7,5% FKS, 1 ml supernatant vs control (0%)); 9.4% in experiment [1] (72 h, Table 9, 1 mM, Zeit 72 h, Applikationstag 2, 7,5% FKS, 1 ml supernatant vs control (0%)); 3.4% in experiment [1] (96 h, Table 9, 1 mM, Zeit 96 h, Applikationstag 0, 7,5% FKS, 1 ml supernatant vs control (0%)); 2.7% in experiment [1] (96 h, Table 9, 1 mM, Zeit 96 h, Applikationstag 1, 7,5% FKS, 1 ml supernatant vs control (0%)); 0.5% in experiment [1] (96 h, Table 9, 1 mM, Zeit 96 h, Applikationstag 2, 7,5% FKS, 1 ml supernatant vs control (0%)). In addition, the activation at 1000 µM in experiment [2] (96 h, 1 mM, Elisa, per 1 x 10⁶ cells, day 4 (Abb. 17B), read-out: Steigerungsrate) was around 35%. Also, the “optimaler Dosisbereich” value in experiment [1] (Table 8, 7,5% FKS, bracketed value = concentration of the single sample) stood at 1 mM. For the same molecule, the “% Steigerung der t-Pa-Synthese Durchschnitt” value in experiment [1] (Table 8, mean ± SE, n = 6-19, runs of 3 days, added day 0 to 2, 7,5% FKS, 1 ml supernatant vs control (0%)) is reported as 31,2 ± 3,2%. For the same molecule, the “% Steigerung der t-Pa-Synthese Maximum” value in experiment [1] (Table 8, single sample, 7,5% FKS, 1 ml supernatant vs control (0%)) is given as 66,4%. Also, the “t-PA-Produktion erhöht (Dauer)” value in experiment [1] (duration of raised production after treatment, independent of application day) is given as 72 h. The “Maximalwert des Steigerungseffektes erreicht nach” value in experiment [1] (time to maximal effect (Abb. 15)) turned out to be 24 h. In addition, the “maximale intrazelluläre t-PA-Konzentration” value in experiment [2] (1 mM, after 24 h (Abb. 17C)) was 1,1 ± 0,1 µg/l x 10⁶ Zellen. Also, the “Hemmung der Zellteilung” value in experiment [5] is given as 10-20%. Moreover, the “extrazelluläre t-PA-Konzentration gegenüber der Kontrolle gesteigert” value in experiment [6] was 10,7%.
